In general, IC50 refers to the concentration that inhibits the measured activity by half.

In one assay the test system is PL45 cells. Kind of assay: MTT bioactivity assay (cell viability). Format: cell-based, human. Particulars: 72 hours incubation. As to the method:
A 3-(4,5-Dimethylthiazol-2-yl)-2,5-Diphenyltetrazolium Bromide (MTT) (Thermo Fisher Scientifc, NY, USA) assay was used to test the bioactivity of NOTA-Dimer-San A cyclodecapeptide. PL45 cells (5000 cells) were seeded in a 96-well plate and incubated overnight. […]. Each concentration was performed in triplicate, and the drug was incubated with the cells for 72 hours. Then 10 μL of MTT (5 mg/mL) was added into each well, incubated for 4 hours until a purple precipitate was visible, and then 100 μL of a detergent reagent was added and incubated until the crystal was dissolved. Finally, the optical density (proportional to the number of live cells) was assessed with a Synergy H1 Hybrid Reader (BioTek® Instruments Inc., Winooski, Vermont, USA) at 570 nm. The cell viability (%) was calculated with GraphPad Prism 5.0 software (GraphPad Software Inc., San Diego, CA, USA).

A further assay deals with T1, Hsp90 in PL45 cells (Homo sapiens, UniProt P07900).
T1 construct: endogenous in cells; host or cells: PL45 cells
In words: Confocal cell immunofluorescence. Format: cell-based. Particulars: biotin-peptide detected with Cy5 labeled avidin, anti-Hsp90α antibody co-stain. As to the method: PL45 cells (3-5 × 10^5) were seeded in a confocal plate with 500 µL of culture medium and incubated for 24 hours at 37°C with 5% CO2. The cell culture medium was then removed, and the cells were rinsed 3 times using phosphate buffered saline (PBS). The cells were fixed using 400 µL of 4% paraformaldehyde (pH 7.4) for 20 minutes at room temperature (RT, ~20°C). Then 500 µL of 3% Bovine Serum Albumin (BSA) (Sigma-Aldrich Corp., St. Louis, MO, USA) was added and incubated for 30 minutes at RT for blocking. The cells were washed and then 250 µL of diluted anti-hsp90α antibody (1:250) or biotine-Dimer-San A peptide was added and incubated for 24 hours at 4°C. The cells were washed, and the desired concentration of the fluorescent-dye-labeled secondary antibody (Abcam, Cambridge, UK) or Cy5 labeled avidin (Vector Laboratories, Burlingame, CA, USA) was added and protected from light at RT for 60 minutes. The supernatant was discarded, and the cells were washed, then a drop of antifade mounting medium with DAPI (Vector Laboratories, Burlingame, CA, USA) was added and incubated for 45 minutes. The target antigen was visualized by confocal fluorescence microscopy Zeiss LSM 880 Airyscan (Carl Zeiss AG, Oberkochen, Germany).

Assay [1] concerns pancreatic cancer PL45 cells. The arrangement: method as in PMID 20014866, PMID 29202402. To be noted: read-out: IC50 (inhibition of pancreatic cancer PL45 cells); cited from earlier work.

Regarding `C=CCNC1=C2C[C@@H](C)C[C@H](OC)[C@H](O)[C@@H](C)/C=C(\C)[C@H](OC(N)=O)[C@@H](OC)/C=C\C=C(/C)C(=O)NC(=CC1=O)C2=O` [17AAG, 17-allylaminogeldanamycin], the half-maximal inhibitory concentration (IC50) in the assay on PL45 cells was 127 nM.

In the case of “Dimer-Sansalvamide A cyclodecapeptide [Dimer-San A]”, the “binding / co-localization with Hsp90 (confocal immunofluorescence)” value at Hsp90 in PL45 cells was “bound to the Hsp90 target”. Moreover, in assay [1], the IC50 is 1 to 20 nM.

Source of the values: article PMC8990417, “^18F-labeled Dimer-Sansalvamide A Cyclodecapeptide: A Novel Diagnostic Probe to Discriminate Pancreatic Cancer from Inflammation in a Nude Mice Model” (Journal of Cancer, 2022).
